Data set [1] deals with JaK2/STAT3 signaling pathway. The data set is described as follows: JaK2/STAT3 phosphorylation and STAT3 translocation in LPS-induced BV-2 cells. Type of data set: cell-based, murine. The following applies: 1 μg/ml LPS, 10, 20, 50 μM, 3 h. The protocol: (§1) BV2 cells were seeded on glass coverslips and treated with circumdatin D in the presence or absence of LPS for indicated time. After that, the cells were washed twice with PBS and fixed with cold 4% paraformaldehyde for 30 min. Then, the cells were permeabilized with 0.1% Triton X-100 for 10 min and blocked with 5% bovine serum albumin for 1 h. After incubation with primary antibodies overnight at 4°C, the cells were incubated with Alexa Fluor 488-conjugated secondary antibodies (Proteintech, USA) for 1 h at room temperature. Furthermore, Hochest 33342 was added to stain cell nuclei. Images were acquired and analyzed using a confocal microscope (Leica, Germany).
Total cell proteins were lysed using cell extraction buffer containing phenylmethylsulfonyl ﬂuoride and protease inhibitor cocktail. The cytosolic and nuclear extracts were collected using the Nuclear and Cytosolic extraction kit. The protein extracts were separated on SDS-PAGE and transferred to PVDF membranes (Millipore). The membrane was blocked with 5% nonfat milk for 1 h at room temperature, and incubated with indicated primary antibodies overnight at 4°C. After washing, the membrane was incubated with secondary antibodies conjugated to horseradish peroxidase (Proteintech, USA) at room temperature for 1 h. […] The relative optical densities were analyzed using the Image Master™ 2D Elite software.

Another data set concerns the target Recombinant AChE (Homo sapiens, UniProt P22303). As to the kind of experiment: biochemical. The following applies: SPR, 25°C, 1:1 Langmuir binding model; read-out: AChE Affinity Kd. How it is done: The experiments for surface plasmon resonance (SPR) interaction were conducted at 25°C using the Biacore T200 system (GE Healthcare, Sweden). Recombinant AChE diluted in sodium acetate buffer (100 mM, pH 4.5) was used as the stock for the following experiments. CM5 sensor chips were coupled with AChE using an amine coupling kit (GE Healthcare, Buckinghamshire, UK). Thereafter, different concentrations of compounds were injected as analytes using PBS-P (10mM phosphate buffer with 2.7 mM KCl and 137 mM NaCl, 0.05% polysorbate 20, […]) as running buffer. For binding assays, the analytes were introduced with a 60 s contact time followed by a 60 s dissociation time at a flow rate of 45 μl/min. The surface was regenerated with 10 mM glycine (pH 3.0) for 30 s. The affinity constants were calculated using the 1:1 Langmuir binding model of Biacore evaluation software (T200 Version 1.0).

The next data set relates to NF-κB. The data set is described as follows: NF-κB luciferase reporter assay. Type of data set: cell-based. The following applies: Homo sapiens; SW480 cells stably transfected with NF-κB luciferase reporter gene, induced by LPS; mean ± SD (n = 3); read-out: NF-κB Activation IC50. The protocol: SW480-NF-κB cells were seeded at a density of 5 × 10^4 cells/well in 24-well plates and incubated with circumdatins with or without LPS stimulation for 6 h. The κB-dependent luciferase reporter activity in cell extracts was monitored using an automated microplate reader.
In general terms: Reporter assays use an easily measured gene product as a stand-in for the process of interest.

The test system of the next data set is NF-κB signaling pathway. As to the kind of experiment: NF-κB p65 translocation and IKK/IκB phosphorylation in LPS-induced BV-2 cells. Format: cell-based, murine. The following applies: 1 μg/ml LPS, 10, 20, 50 μM, 3 h. How it is done: as §1
Total cell proteins were lysed using cell extraction buffer containing phenylmethylsulfonyl ﬂuoride and protease inhibitor cocktail. The cytosolic and nuclear extracts were collected using the Nuclear and Cytosolic extraction kit. The protein extracts were separated on SDS-PAGE and transferred to PVDF membranes (Millipore). The membrane was blocked with 5% nonfat milk for 1 h at room temperature, and incubated with indicated primary antibodies overnight at 4°C. After washing, the membrane was incubated with secondary antibodies conjugated to horseradish peroxidase (Proteintech, USA) at room temperature for 1 h. Then, the proteins of interest were visualized utilizing a chemiluminescence (ECL) detection system. The relative optical densities were analyzed using the Image Master™ 2D Elite software.

Data set [2] has as its system BV-2 cells. As to the kind of experiment: RT-PCR of TNF-α, IL-1β, iNOS and COX-2 mRNA in LPS-induced BV-2 cells. Format: cell-based, murine. The following applies: 1 μg/ml LPS, 10, 20, 50 μM, 24 h. How it is done: Total RNA was extracted using TRIzol reagent (Life Technologies, NY) and then reverse-transcribed into cDNA by reverse transcriptase (Invitrogen). mRNA expression of target genes iNOS, COX-2, IL-1β and TNF-α was quantified in comparison to housekeeping gene GAPDH using SYBR green detection method on ABI 7500 system (Applied Biosystems). The relative gene expression was calculated using comparative Ct (ΔΔCt) method. The following primers in Table 1 were used in this study.

The subject of data set [3] is BV-2 cells. As to the kind of experiment: ELISA for TNF-α and IL-1β in LPS-induced BV-2 cells. Type of data set: cell-based, murine. The following applies: 1 μg/ml LPS, 10, 20, 50 μM, 6 h TNF-α, 8 h IL-1β. How it is done:
Cells were treated with different concentrations of circumdatin D in the presence or absence of LPS for indicated time. Then, the culture media were collected and centrifuged at 12,000g, 4°C for 20 min. The levels of TNF-α and IL-β in the supernatants were determined by ELISA kits according to the manufacturer's instructions.
(In general: An ELISA detects its analyte on a solid surface through an enzyme-linked reagent.)

In data set [4] the test system is AChE in C. elegans CL4176. The data set is described as follows: AChE activity of C. elegans CL4176. Type of data set: in vivo, Caenorhabditis elegans. The following applies: CL4176 nematodes. How it is done:
AChE activity of C. elegans was determined by the method as described ([Xin et al., 2013]). Briefly, approximately 1,000 nematodes with or without circumdatin D treatment were collected and then triturated mechanically in PBS (50 mM, pH 7.4) on ice. The lysate supernatant was collected by centrifugation and AChE activity in the supernatant was determined using modified Ellman method. The protein concentration was determined by BCA protein assay. AChE activity was expressed as U/mg proteins.

For a further data set, the system named is primary cortical neurons. The data set is described as follows: MTT assay in primary neuron-enriched cells. Format: cell-based, Sprague Dawley rats. The following applies: 48 h, 1–100 μM. How it is done:
Primary microglia were prepared from the cortical tissue of neonatal (1–3 d) Sprague Dawley rats as [Ni and Aschner (2010)] described and primary cortical neurons were isolated from embryos of pregnant Sprague Dawley rats of E-18 ([Zeng et al., 2012]). All experimental manipulations with the animals was reviewed and approved by the animal experimental ethics committee of Peking University. The animals used in the work were performed in accordance with the Animal Care and Use Guidelines of Peking University.
(§2) In vitro cytotoxicity was detected using the MTT assay. Cells were treated with different concentrations of circumdatins in the presence or absence of LPS for 48 h. Then, MTT reagent was added to each well and the plates were further incubated at 37°C for 4 h. The absorbance was read at 570 nm using a microplate spectrophotometer (Thermo Scientifics, USA).
A general note: Tetrazolium assays rely on reduction of a dye to a coloured formazan, in cell work by metabolically active cells.

Data set [5] concerns BV-2 cells. As to the kind of experiment: MTT cytotoxicity / cell survivability in BV-2 cells. Format: cell-based, murine. Particulars: 1 μg/ml LPS, doses 0–100 μM, 48 h. How it is done:
as §2
Cell surviability was detected using the MTT assay. Cells were seeded in 96-well plates and incubated overnight, following which the cells were treated with different concentrations of circumdatins with or without 1µg/mL of LPS for indicated time. Then, the cells were subsequently cultured with MTT and incubated for 4 hours at 37°C. Thereafter, the purple formazan dye was dissolved in DMSO and the absorbance was measured at 570 nm.

The structures appear in SMILES notation.

Chain of Recombinant AChE (P22303 32-614): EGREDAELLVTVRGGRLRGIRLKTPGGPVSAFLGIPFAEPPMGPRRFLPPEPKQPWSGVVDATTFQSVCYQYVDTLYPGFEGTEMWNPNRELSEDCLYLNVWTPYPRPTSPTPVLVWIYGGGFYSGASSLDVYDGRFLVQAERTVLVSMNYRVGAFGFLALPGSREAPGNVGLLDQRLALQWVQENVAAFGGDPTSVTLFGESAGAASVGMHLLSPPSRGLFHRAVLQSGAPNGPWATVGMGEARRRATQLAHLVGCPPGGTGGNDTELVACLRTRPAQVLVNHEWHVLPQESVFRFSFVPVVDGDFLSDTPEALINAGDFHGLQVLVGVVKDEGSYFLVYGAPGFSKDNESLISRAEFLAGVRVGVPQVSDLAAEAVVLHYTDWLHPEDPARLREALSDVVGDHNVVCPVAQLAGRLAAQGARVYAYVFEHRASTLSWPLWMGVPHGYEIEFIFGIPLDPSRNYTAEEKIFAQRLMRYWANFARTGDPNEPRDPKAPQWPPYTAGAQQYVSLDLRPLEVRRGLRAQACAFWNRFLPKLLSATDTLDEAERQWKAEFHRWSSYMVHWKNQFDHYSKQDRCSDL

Broadly, the Kd is the free concentration of one partner at which half of the binding sites on the other are occupied at equilibrium, for simple one-to-one binding. Broadly, the IC50 is the concentration that gives 50% inhibition. For the molecule `COc1ccc2c(c1)C(=O)N1CCC[C@H]1c1nc3ccc(OC)cc3c(=O)n1-2` [circumdatin D], in data set [1], the “LPS-induced phosphorylation of JaK2” value is listed as “strongly reduced LPS-induced phosphorylation of JaK2”; the “phosphorylation and nuclear translocation of STAT3” value is “effectively inhibited the phosphorylation and translocation of STAT3”. The Kd at Recombinant AChE came to 1.9 µM. Besides, in the data set on NF-κB, the half-inhibitory concentration (IC50) is 8.7 ± 1.3 µM. Moreover, in the data set with NF-κB signaling pathway, the “NF-κB nuclear translocation (immunofluorescence)” value was “inhibited LPS-induced NF-κB nuclear translocation”; the “nuclear NF-κB p65 levels (Western blot)” value was “reduced nuclear NF-κB p65 levels significantly”; the “phosphorylation levels of IKK and IκB” value is “down-regulated the phosphorylation levels of IKK and IκB”. Also, in the data set on BV-2 cells [2], the “iNOS and COX-2 mRNA expression levels (q-PCR)” value is “dose-dependently decreasing the expression levels of both iNOS and COX-2”; the “proinflammatory cytokines mRNA levels” value is listed as “significantly decreased proinflammatory cytokines”. Besides, in the data set on BV-2 cells [3], the “LPS-induced TNF-α and IL-1β production (ELISA)” value is “suppressed LPS-induced TNF-α and IL-1β production”. Besides, the “AChE activity elevated upon temperature upshift” value in [4] was “significantly attenuated these changes in a dose-dependent manner”. In the data set with primary cortical neurons, the “direct toxicity to neurons (MTT)” value is reported as “no direct toxic to neurons”. In the data set on BV-2 cells [5], the “cytotoxicity in the presence of LPS (MTT)” value is “did not induce significant cellular death”.
